Source: US20040053270A1, “RNA binding compounds and uses thereof” (priority 2000, published 2004)

System: E. coli ribosomes
Details: 20 nM competitor, 20 nM oxazolidinone-TAMRA reporter
Experimental: The interaction between oxazolidinone-TAMRA and E. coli ribosomes was monitored by comparing the change in fluorescence anisotropy in the presence and absence of 100 μM non-fluorescent oxazolidinone competitor. Each measurement was made in a 400 μl cuvette, in a Perkin Elmer LS50B fluorimeter. Increasing amounts of ribosomes (corresponding to the amounts shown in FIG. 6) were added to a solution of 20 nM oxazolidinone-TAMRA in the presence of 50 mM Tris.HCl pH 7.5, 70 mM NH4Cl, 30 mM KCl, 7 mM MgCl2, 1 mM DTT, 0.5 mM EDTA. For each titration point an anisotropy measurement was acquired using an excitation wavelength of 554 nm with the excitation slits set to 10 nm and an emission wavelength of 575 nm with the emission slits set to 10 nm.
The same experiment was performed, but using 20 nM non-fluorescent linezolid (an oxazolidinone) as the competitor.

## CC(=O)NC[C@H]1CN(c2ccc(N3CCOCC3)c(F)c2)C(=O)O1 [linezolid]
  anisotropy upon addition of the ribosomes in the presence of competitor: considerably reduced
